Test results from PubChem BioAssay (NCI).
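Interpolation was linear, between the two tested concentrations surrounding the appropriate level; five concentrations were tested over 48 hours in 96-well plates. At the GI50, growth is halved. At the TGI there is no net growth.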

Assays:
Assay in all cases: NCI tumour cell line growth inhibition, 48 h
NCI-H460 lung = test system: NCI-H460 lung
NCI-H522 lung = test system: NCI-H522 lung
NCI/ADR-RES ovarian = test system: NCI/ADR-RES ovarian
OVCAR-3 ovarian = test system: OVCAR-3 ovarian
OVCAR-4 ovarian = test system: OVCAR-4 ovarian
OVCAR-5 ovarian = test system: OVCAR-5 ovarian
OVCAR-8 ovarian = test system: OVCAR-8 ovarian
PC-3 prostate = test system: PC-3 prostate
RPMI-8226 leukemia = test system: RPMI-8226 leukemia
RXF 393 renal = test system: RXF 393 renal
SF-268 CNS = test system: SF-268 CNS
SF-295 CNS = test system: SF-295 CNS
SF-539 CNS = test system: SF-539 CNS
SK-MEL-2 melanoma = test system: SK-MEL-2 melanoma
SK-MEL-28 melanoma = test system: SK-MEL-28 melanoma
SK-MEL-5 melanoma = test system: SK-MEL-5 melanoma
SK-OV-3 ovarian = test system: SK-OV-3 ovarian
SN12C renal = test system: SN12C renal
SNB-19 CNS = test system: SNB-19 CNS
SNB-75 CNS = test system: SNB-75 CNS
SR leukemia = test system: SR leukemia
SW-620 colon = test system: SW-620 colon
T-47D breast = test system: T-47D breast
TK-10 renal = test system: TK-10 renal
U251 CNS = test system: U251 CNS
UACC-257 melanoma = test system: UACC-257 melanoma
UACC-62 melanoma = test system: UACC-62 melanoma
UO-31 renal = test system: UO-31 renal

For `CCOC(=O)c1sc2nc(=S)[nH]c(NC(N)=S)c2c1C`, the GI50 (NCI-H460 lung) was 23.2 µM, the TGI (NCI-H460 lung) was 61 µM and the GI50 (NCI-H522 lung) was 20.7 µM. The TGI (NCI-H522 lung) was 55 µM, the GI50 (NCI/ADR-RES ovarian) was 12.7 µM and the TGI (NCI/ADR-RES ovarian) was 29.9 µM. For the same compound, the GI50 (OVCAR-3 ovarian) was 26.4 µM, the TGI (OVCAR-3 ovarian) was 56.2 µM and the GI50 (OVCAR-4 ovarian) was 35.4 µM. For the same compound, the TGI (OVCAR-4 ovarian) was > 100 µM, the GI50 (OVCAR-5 ovarian) was 26.1 µM and the TGI (OVCAR-5 ovarian) was 75.7 µM. For the same compound, the GI50 (OVCAR-8 ovarian) was 25.4 µM, the TGI (OVCAR-8 ovarian) was 63.3 µM and the GI50 (PC-3 prostate) was 22.7 µM. For the same compound, the TGI (PC-3 prostate) was 94.6 µM, the GI50 (RPMI-8226 leukemia) was 18.4 µM and the TGI (RPMI-8226 leukemia) was 49.9 µM. The GI50 (RXF 393 renal) was 19.1 µM, the TGI (RXF 393 renal) was 47.2 µM and the GI50 (SF-268 CNS) was 17.8 µM. It also gave a TGI (SF-268 CNS) of 42.7 µM, a GI50 (SF-295 CNS) of 24.4 µM and a TGI (SF-295 CNS) of 65.8 µM. It also gave a GI50 (SF-539 CNS) of 11.9 µM, a TGI (SF-539 CNS) of 25.4 µM and a GI50 (SK-MEL-2 melanoma) of 46.7 µM. The TGI (SK-MEL-2 melanoma) was > 100 µM, the GI50 (SK-MEL-28 melanoma) was 19 µM and the TGI (SK-MEL-28 melanoma) was 41.6 µM. It also gave a GI50 (SK-MEL-5 melanoma) of 16.8 µM, a TGI (SK-MEL-5 melanoma) of 31.7 µM and a GI50 (SK-OV-3 ovarian) of 20.6 µM. The TGI (SK-OV-3 ovarian) was 61.3 µM, the GI50 (SN12C renal) was 13.1 µM and the TGI (SN12C renal) was 26.9 µM. The GI50 (SNB-19 CNS) was 28.1 µM, the TGI (SNB-19 CNS) was > 100 µM and the GI50 (SNB-75 CNS) was 21.4 µM. It also gave a TGI (SNB-75 CNS) of 66.6 µM, a GI50 (SR leukemia) of 20.9 µM and a TGI (SR leukemia) of 64.7 µM. For the same compound, the GI50 (SW-620 colon) was 23.3 µM, the TGI (SW-620 colon) was 55.1 µM and the GI50 (T-47D breast) was 11.3 µM. For the same compound, the TGI (T-47D breast) was 37 µM, the GI50 (TK-10 renal) was 95.5 µM and the TGI (TK-10 renal) was > 100 µM. The GI50 (U251 CNS) was 17.2 µM, the TGI (U251 CNS) was 36.8 µM and the GI50 (UACC-257 melanoma) was 24.6 µM. It also gave a TGI (UACC-257 melanoma) of 47.3 µM, a GI50 (UACC-62 melanoma) of 12.4 µM and a TGI (UACC-62 melanoma) of 26.1 µM. The GI50 (UO-31 renal) was 20.3 µM and the TGI (UO-31 renal) was 61.7 µM.
